Laboratory results from patent US20140141069A1, “BETA-GUANIDINOPROPIONIC ACID FOR THE TREATMENT OF HYPERTENSION” (priority 2011, published 2014).
Read-outs that look alike come from different tables or passages of the source.

Legend:
[1] = system: ADP-dependent platelet aggregation; experiment: Blood CK titration at 1 μmol/L ADP, platelet aggregation (pilot experiment); assay type: cell-based
[2] = system: creatine kinase; conditions: equimolar quantities of DNFB, cited from earlier work
[3] = system: Spontaneous Hypertension (SH) rats; experiment: Blood pressure of non-obese SH rats on creatine-free diet with 0.1% β-guanidinopropionic acid; assay type: in vivo, rat; conditions: feed contained 0.1% β-guanidinopropionic acid
Description: The effects of β-guanidinopropionic acid can not be explained by, for example, a reduction in weight.

[4] = system: SHR mesenteric arteries; experiment: Vasodilation/contractility of SHR mesenteric arteries in vitro in a wire myograph with the CK-inhibitor DNFB; set-up: species or system rat; conditions: p<0.01
[5] = system: rats; conditions: 1% in rat chow, up to 8 weeks of feeding; cited from earlier work
[6] = Certified toxicological testing of marketed β-guanidinopropionic acid; conditions: preliminary tests of product marketed for human use
[7] = system: SHR; experiment: Tail cuff blood pressure in SHR on a diet with β-GPA versus standard diet (Example 5); assay type: in vivo, rat
Experimental: Male, non-obese, normoglycaemic, 16-weeks-old SHR without lipid abnormalities were randomly assigned to a diet with β-GPA versus a standard diet without β-GPA (N=8 per group). Blood pressure was measured weekly with the tail cuff method. All blood pressure measurements were performed unblinded under equal conditions. Body temperature was kept constant during the measurements at 36-38° C. […] Data are expressed as mean (SEM).

[8] = system: creatine kinase; conditions: creatine kinase reaction; cited from earlier work
[9] = system: myocardial phosphocreatine and creatine; conditions: high doses; cited from earlier work
[10] = system: SH rats; experiment: Tail cuff blood pressure in SH adult rats given 3% β-GPA (Example 4); assay type: in vivo, rat; conditions: 3% β-GPA in feed, tailcuff method
Experimental: A total of 24 SH adult rats are divided into 4 groups: the test group is given 3% β-GPA , a second group is given 3% creatine, a third group is given 3% creatine +3% β-GPA; and a control group receives only normal feed. SH rats are usually also associated with high creatine kinase levels, although it is unknown whether this is cause or result of the spontaneous high blood pressure. […] Blood pressure was measured at the tail using standard methods (tailcuff method). In the control group, the blood pressure rises. An absence in the rise of blood pressure or even a reduction in the blood pressure in the test group indicates the blood pressure lowering effect of β-GPA. In order to exclude a possible effect of creatine deficiency or a possible effect of creatine itself on the blood pressure level, the two additional control groups (3% creatine or 3% creatine +3% β-GPA).

[11] = cited from earlier work

**Q.** With `CN(CC(=O)O)C(=N)NP(=O)(O)O` [CrP, phosphocreatine] as the compound, how does the “Inhibition of ADP-dependent platelet aggregation with increasing CK” value [1] read?
**A.** Its value is “greater inhibition of ADP-dependent platelet aggregation”.

**Q.** Which results are given for `O=[N+]([O-])c1ccc(F)c([N+](=O)[O-])c1` [DNFB, dinitrofluorobenzene]?
**A.** Mean inhibition of contraction ([2]; blacks): 0.32; Mean inhibition of contraction ([2]; whites): 0.90

**Q.** What does the source list for `NC(N)=NCCC(=O)O` [β-GPA, 3-(diaminomethylideneamino)propanoic acid]?
**A.** Blood pressure rise characteristic for SH rats [3]: did not show blood pressure rise; Residual contractility after the CK inhibitor DNFB, versus controls ([4]; mesenteric arteries of rats treated with β-GPA compared to controls, DNFB, mean (SEM)): −41.3 (13.0) %; Vasodilation of mesenteric arteries compared to controls ([4]; rats treated with β-GPA before sacrifice, in vitro incubation with dinitrofluorobenzene, N=5 to 6 per group): significantly increased; Cardiac function or sprint capacity in vivo [5]: does not lead to reduced cardiac function or overtly reduced sprint capacity; Certified toxicological testing [6]: passed certified toxicological testing; Weight changes ([7]; diet with β-GPA): no significant weight changes; Systolic pressure reduction ([7]; diet with β-GPA vs controls, 4 weeks, tail cuff, mean (SEM), N=8 per group, p<0.001): −42.7 (5.5) mm Hg; Diastolic pressure reduction ([7]; diet with β-GPA vs controls, tail cuff, mean (SEM), p<0.001): −35.3 (4.8) mm Hg; in vitro Vmax relative to the Vmax values of creatine and phosphocreatine [8]: < 1%; Reduction of myocardial phosphocreatine and creatine concentrations [9]: up to 80%; Blood pressure level versus control SH rats [10]: lower than that of the control SH rats; Solubility in water [11]: up to 50 mg/ml
